Results as given in ChEMBL document CHEMBL3576838, “Synthesis and in vitro and in vivo biological evaluation of substituted nitroquinoxalin-2-ones and 2,3-diones as novel trichomonacidal agents” (Eur J Med Chem, 2015).
pIC50: −log10 of the molar value.

Columns and labels:
Trichomonas vaginalis [1] = assay: Trichomonicidal activity against Trichomonas vaginalis JH31A#4 trophozite assessed as inhibition of parasite growth at 37.5 uM after 24 hrs by resazurin redox dye based fluorimetric microtiter method; format: functional; conditions: JH31A#4, 24 h
Trichomonas vaginalis [2] = assay: Trichomonicidal activity against Trichomonas vaginalis JH31A#4 trophozite assessed as inhibition of parasite growth at 9.37 uM after 24 hrs by resazurin redox dye based fluorimetric microtiter method; format: functional; conditions: JH31A#4, 24 h
Trichomonas vaginalis [3] = assay: Trichomonicidal activity against Trichomonas vaginalis JH31A#4 trophozite assessed as inhibition of parasite growth at 18.75 uM after 24 hrs by resazurin redox dye based fluorimetric microtiter method; format: functional; conditions: JH31A#4, 24 h
Trichomonas vaginalis [4] = assay: Trichomonicidal activity against Trichomonas vaginalis JH31A#4 trophozite assessed as inhibition of parasite growth at 75 uM after 24 hrs by resazurin redox dye based fluorimetric microtiter method; format: functional; conditions: JH31A#4, 24 h
Trichomonas vaginalis [5] = assay: Trichomonicidal activity against Trichomonas vaginalis JH31A#4 trophozite assessed as inhibition of parasite growth at 300 uM after 24 hrs by resazurin redox dye based fluorimetric microtiter method; format: functional; conditions: JH31A#4, 24 h
Trichomonas vaginalis [6] = assay: Trichomonicidal activity against Trichomonas vaginalis JH31A#4 trophozite assessed as inhibition of parasite growth at 150 uM after 24 hrs by resazurin redox dye based fluorimetric microtiter method; format: functional; conditions: JH31A#4, 24 h
Trichomonas vaginalis [7] = assay: Trichomonicidal activity against Trichomonas vaginalis JH31A#4 trophozite assessed as inhibition of parasite growth after 24 hrs by resazurin redox dye based fluorimetric microtiter method; format: functional, organism-based; conditions: JH31A#4, 24 h
[8] = Selectivity index, ratio of CC50 for African green monkey Vero cells to IC50 for Trichomonas vaginalis JH31A#4 trophozite; format: functional
[9] = Cytotoxicity against African green monkey Vero cells assessed as inhibition of cell growth after 24 hrs by resazurin redox dye based fluorimetric microtiter method; conditions: chlorocebus sabaeus
Vero = assay: Cytotoxicity against African green monkey Vero cells at 300 uM after 24 hrs by resazurin redox dye based fluorimetric microtiter method; format: cell-based; conditions: chlorocebus sabaeus
Trichomonas vaginalis [10] = assay: Trichomonicidal activity against Trichomonas vaginalis JH31A#4 trophozite assessed as inhibition of parasite growth at 10 ug/ml after 24 hrs by resazurin redox dye based fluorimetric microtiter method; format: functional; conditions: JH31A#4, 24 h, read-out: GI

**Q.** With `O=c1[nH]c2cc([N+](=O)[O-])ccc2n(CCCCCBr)c1=O` as the compound, how does the inhibition at 37.5 µM (Trichomonas vaginalis [1]) read?
**A.** 11.6%

**Q.** What about the inhibition at 9.37 µM (Trichomonas vaginalis [2]) of the same compound?
**A.** 0%

**Q.** And the inhibition at 18.75 µM (Trichomonas vaginalis [3])?
**A.** 4.09%

**Q.** And the inhibition at 75 µM (Trichomonas vaginalis [4])?
**A.** 20.1%

**Q.** And the inhibition at 300 µM (Trichomonas vaginalis [5])?
**A.** 79.6%

**Q.** What about the inhibition at 150 µM (Trichomonas vaginalis [6]) of the same compound?
**A.** 49%

**Q.** What about the pIC50 (Trichomonas vaginalis [7]) of the same compound?
**A.** 3.84

**Q.** Which inhibition at 37.5 µM (Trichomonas vaginalis [1]) does the source give for `CCN(CC)CCCN1CC(=O)Nc2cc([N+](=O)[O-])ccc21.Cl` here?
**A.** 55.5%

**Q.** And the “Ratio CC50/IC50” value [8]?
**A.** >10

**Q.** And the inhibition at 9.37 µM (Trichomonas vaginalis [2])?
**A.** 23.1%

**Q.** What about the CC50 at 24 h [9] of the same compound?
**A.** > 300 µM

**Q.** And the inhibition at 18.75 µM (Trichomonas vaginalis [3])?
**A.** 28.8%

**Q.** What about the inhibition at 75 µM (Trichomonas vaginalis [4]) of the same compound?
**A.** 59%

**Q.** What about the Activity (Vero) of the same compound?
**A.** 0.16%

**Q.** And the inhibition at 300 µM (Trichomonas vaginalis [5])?
**A.** 88.6%

**Q.** What about the inhibition at 150 µM (Trichomonas vaginalis [6]) of the same compound?
**A.** 64.2%

**Q.** And the pIC50 (Trichomonas vaginalis [7])?
**A.** 4.41

**Q.** For `CN(C)CCN1CC(=O)Nc2cc([N+](=O)[O-])ccc21.Cl`, which inhibition at 37.5 µM (Trichomonas vaginalis [1]) is on record?
**A.** 40.8%

**Q.** And the “Ratio CC50/IC50” value [8]?
**A.** >10

**Q.** What about the inhibition at 9.37 µM (Trichomonas vaginalis [2]) of the same compound?
**A.** 5.16%

**Q.** What about the CC50 at 24 h [9] of the same compound?
**A.** > 300 µM

**Q.** What about the inhibition of growth at 10 µg/mL (Trichomonas vaginalis [10]) of the same compound?
**A.** 7%

**Q.** What about the inhibition at 18.75 µM (Trichomonas vaginalis [3]) of the same compound?
**A.** 28.4%

**Q.** And the inhibition at 75 µM (Trichomonas vaginalis [4])?
**A.** 83.7%

**Q.** And the Activity (Vero)?
**A.** 0%

**Q.** And the inhibition at 300 µM (Trichomonas vaginalis [5])?
**A.** 98.5%

**Q.** And the inhibition at 150 µM (Trichomonas vaginalis [6])?
**A.** 96.9%

**Q.** What about the pIC50 (Trichomonas vaginalis [7]) of the same compound?
**A.** 4.43

**Q.** For `Cn1c(=O)c(=O)n(CCCCCl)c2ccc([N+](=O)[O-])cc21`, which inhibition at 37.5 µM (Trichomonas vaginalis [1]) is on record?
**A.** 20.1%

**Q.** What about the inhibition at 9.37 µM (Trichomonas vaginalis [2]) of the same compound?
**A.** 11.8%

**Q.** And the inhibition at 18.75 µM (Trichomonas vaginalis [3])?
**A.** 19.9%

**Q.** What about the inhibition at 75 µM (Trichomonas vaginalis [4]) of the same compound?
**A.** 36.2%

**Q.** And the inhibition at 300 µM (Trichomonas vaginalis [5])?
**A.** 68.5%

**Q.** What about the inhibition at 150 µM (Trichomonas vaginalis [6]) of the same compound?
**A.** 52.7%

**Q.** What about the pIC50 (Trichomonas vaginalis [7]) of the same compound?
**A.** 3.75

**Q.** Which inhibition at 37.5 µM (Trichomonas vaginalis [1]) does the source give for `Cl.O=C1CN(CCN2CCCCC2)c2ccc([N+](=O)[O-])cc2N1` here?
**A.** 45.6%

**Q.** And the “Ratio CC50/IC50” value [8]?
**A.** >10

**Q.** What about the inhibition at 9.37 µM (Trichomonas vaginalis [2]) of the same compound?
**A.** 26%

**Q.** What about the CC50 at 24 h [9] of the same compound?
**A.** > 300 µM

**Q.** And the inhibition at 18.75 µM (Trichomonas vaginalis [3])?
**A.** 32.7%

**Q.** What about the inhibition at 75 µM (Trichomonas vaginalis [4]) of the same compound?
**A.** 78.3%

**Q.** What about the Activity (Vero) of the same compound?
**A.** 1.51%

**Q.** And the inhibition at 300 µM (Trichomonas vaginalis [5])?
**A.** 99%

**Q.** And the inhibition at 150 µM (Trichomonas vaginalis [6])?
**A.** 82.2%

**Q.** And the pIC50 (Trichomonas vaginalis [7])?
**A.** 4.51

**Q.** For `O=C1CN(CCCO)c2ccc([N+](=O)[O-])cc2N1`, which inhibition at 37.5 µM (Trichomonas vaginalis [1]) is on record?
**A.** 26.6%

**Q.** What about the inhibition at 9.37 µM (Trichomonas vaginalis [2]) of the same compound?
**A.** 3.66%

**Q.** And the inhibition at 18.75 µM (Trichomonas vaginalis [3])?
**A.** 4.5%

**Q.** What about the inhibition at 75 µM (Trichomonas vaginalis [4]) of the same compound?
**A.** 28.4%

**Q.** What about the inhibition at 300 µM (Trichomonas vaginalis [5]) of the same compound?
**A.** 84%

**Q.** And the inhibition at 150 µM (Trichomonas vaginalis [6])?
**A.** 68.1%

**Q.** What about the pIC50 (Trichomonas vaginalis [7]) of the same compound?
**A.** 3.99

**Q.** With `O=C1CN(CCCCCCCl)c2ccc([N+](=O)[O-])cc2N1` as the compound, how does the inhibition of growth at 10 µg/mL (Trichomonas vaginalis [10]) read?
**A.** 73%

**Q.** With `O=c1[nH]c2cc([N+](=O)[O-])ccc2n(CCCCCCCl)c1=O` as the compound, how does the inhibition at 37.5 µM (Trichomonas vaginalis [1]) read?
**A.** 15.1%

**Q.** And the inhibition at 9.37 µM (Trichomonas vaginalis [2])?
**A.** 9.43%

**Q.** And the inhibition at 18.75 µM (Trichomonas vaginalis [3])?
**A.** 17%

**Q.** What about the inhibition at 75 µM (Trichomonas vaginalis [4]) of the same compound?
**A.** 45.1%

**Q.** What about the inhibition at 300 µM (Trichomonas vaginalis [5]) of the same compound?
**A.** 95.8%

**Q.** And the inhibition at 150 µM (Trichomonas vaginalis [6])?
**A.** 70.8%

**Q.** And the pIC50 (Trichomonas vaginalis [7])?
**A.** 3.97

**Q.** For `O=c1[nH]c2cc([N+](=O)[O-])ccc2n(CCCCCl)c1=O`, which inhibition at 37.5 µM (Trichomonas vaginalis [1]) is on record?
**A.** 18%

**Q.** And the inhibition at 9.37 µM (Trichomonas vaginalis [2])?
**A.** 8.25%

**Q.** What about the inhibition at 18.75 µM (Trichomonas vaginalis [3]) of the same compound?
**A.** 12.7%

**Q.** What about the inhibition at 75 µM (Trichomonas vaginalis [4]) of the same compound?
**A.** 21.4%

**Q.** And the inhibition at 300 µM (Trichomonas vaginalis [5])?
**A.** 94.9%

**Q.** What about the inhibition at 150 µM (Trichomonas vaginalis [6]) of the same compound?
**A.** 40.6%

**Q.** What about the pIC50 (Trichomonas vaginalis [7]) of the same compound?
**A.** 3.82

**Q.** What does the source list for `CN1C(=O)CN(CCCO)c2ccc([N+](=O)[O-])cc21`?
**A.** inhibition at 37.5 µM (Trichomonas vaginalis [1]): 33.4%; Ratio CC50/IC50 [8]: >10; inhibition at 9.37 µM (Trichomonas vaginalis [2]): 6.39%; CC50 at 24 h [9]: > 300 µM; inhibition at 18.75 µM (Trichomonas vaginalis [3]): 19%; inhibition at 75 µM (Trichomonas vaginalis [4]): 48.4%; Activity (Vero): 5.07%; inhibition at 300 µM (Trichomonas vaginalis [5]): 94.8%; inhibition at 150 µM (Trichomonas vaginalis [6]): 77.2%; pIC50 (Trichomonas vaginalis [7]): 4.22

**Q.** For `CN1C(=O)CN(CCCCCl)c2ccc([N+](=O)[O-])cc21`, which inhibition of growth at 10 µg/mL (Trichomonas vaginalis [10]) is on record?
**A.** 73%

**Q.** What does the source list for `Cn1c(=O)c(=O)n(CCCCCCl)c2ccc([N+](=O)[O-])cc21`?
**A.** inhibition at 37.5 µM (Trichomonas vaginalis [1]): 45.7%; Ratio CC50/IC50 [8]: >10; inhibition at 9.37 µM (Trichomonas vaginalis [2]): 22.1%; CC50 at 24 h [9]: > 300 µM; inhibition at 18.75 µM (Trichomonas vaginalis [3]): 40.1%; inhibition at 75 µM (Trichomonas vaginalis [4]): 52.2%; Activity (Vero): 0%; inhibition at 300 µM (Trichomonas vaginalis [5]): 70.2%; inhibition at 150 µM (Trichomonas vaginalis [6]): 66.2%; pIC50 (Trichomonas vaginalis [7]): 4.21

**Q.** With `CCN(CC)CCCN1CC(=O)N(C)c2cc([N+](=O)[O-])ccc21.Cl` as the compound, how does the inhibition at 37.5 µM (Trichomonas vaginalis [1]) read?
**A.** 55.5%

**Q.** What about the “Ratio CC50/IC50” value [8] of the same compound?
**A.** 38.07

**Q.** And the inhibition at 9.37 µM (Trichomonas vaginalis [2])?
**A.** 1.8%

**Q.** What about the CC50 at 24 h [9] of the same compound?
**A.** 1240 µM

**Q.** And the inhibition at 18.75 µM (Trichomonas vaginalis [3])?
**A.** 14%

**Q.** What about the inhibition at 75 µM (Trichomonas vaginalis [4]) of the same compound?
**A.** 96.1%

**Q.** And the Activity (Vero)?
**A.** 10.81%

**Q.** What about the inhibition at 300 µM (Trichomonas vaginalis [5]) of the same compound?
**A.** 100%

**Q.** And the inhibition at 150 µM (Trichomonas vaginalis [6])?
**A.** 100%

**Q.** And the pIC50 (Trichomonas vaginalis [7])?
**A.** 4.49

**Q.** What does the source list for `O=C1Nc2cc([N+](=O)[O-])ccc2N2CCCOC12` (stereo not drawn)?
**A.** inhibition at 37.5 µM (Trichomonas vaginalis [1]): 51.3%; Ratio CC50/IC50 [8]: >10; inhibition at 9.37 µM (Trichomonas vaginalis [2]): 0.98%; CC50 at 24 h [9]: > 300 µM; inhibition at 18.75 µM (Trichomonas vaginalis [3]): 12.1%; inhibition at 75 µM (Trichomonas vaginalis [4]): 77.4%; Activity (Vero): 2.08%; inhibition at 300 µM (Trichomonas vaginalis [5]): 99.5%; inhibition at 150 µM (Trichomonas vaginalis [6]): 92.8%; pIC50 (Trichomonas vaginalis [7]): 4.38
